In patent US20210038559A1, “CANNABINOIDS AND DERIVATIVES FOR PROMOTING IMMUNOGENICITY OF TUMOR AND INFECTED CELLS” (priority 2018, published 2021):
pEC50: −log10 of the molar value.

Columns and labels:
[1] = tested on: MHC class I expression on COLO 205 cells; test: MHC class I expression on COLO 205 cells, 24 hours, flow cytometry (W6/32); details: for fold induction at 10 µM / fold induction at 20 µM / fold induction at 30 µM / fold induction at 40 µM: Homo sapiens, COLO 205
Procedure: FIG. 2A-2F. […] Cells were treated for 24 hours and cell surface MHC class I expression was measured by flow cytometry.
Cannabigerol was also tested for its capacity to induce MHC class I expression in a human colorectal carcinoma cell line, COLO 205. The cells were treated with either 25 μM or 50 μM cannabigerol for 24 hours. Fluorophor (Alexa Fluor 488)-conjugated W6/32 antibody (Thermo Fisher) was used in a flow cytometry assay to quantitate MHC class I expression. […] Cannabigerol is only one of many cannabinoid-like molecules with potential biopharmaceutical activity. […] COLO 205 cells were treated with up to 40 μM of the cannabinoids 1-5 presented in Tables 1 and 2 and evaluated for cell surface MHC class I expression as described above for cannabigerol.

[2] = tested on: MHC-I expression on COLO 205 cells; test: Phytocannabinoid MHC-I induction on COLO 205 cells, 0-100 μM, 48 hours; details: for pEC50: Homo sapiens, COLO 205, 48 h; for Fold Induction: MHC-I expression on COLO 205 cells, 0-100 μM, 48 hours, relative to control cells treated only with buffer
Procedure: FIG. 4. Cell surface MHC class I expression was measured by flow cytometry (MFI).
Phytocannabinoids were tested for MHC-I-inducing activity on COLO 205 cells. Each cannabinoid was tested at a concentration range of 0-100 μM. […] “ND” indicates not determined.

[3] = tested on: MHC class I expression, mouse Lewis lung carcinoma cell line A9; test: MHC class I expression in mouse A9 Lewis lung carcinoma cells, 24 hours, flow cytometry; format: cell-based; details: 100 ng/ml, positive control
Procedure: FIG. 1A-1B. Cannabigerol stimulates MHC class I expression in the mouse A9 Lewis lung carcinoma (FIG. 1A) and the human COLO 205 colorectal carcinoma (FIG. 1B) cell lines. Cells were treated for 24 hours with 21.2 μM (A) or 25 and 50 μM (FIG. 1B) cannabigerol.
Cannabigerol, a representative cannabinoid, was tested for its ability to also stimulate MHC class I expression in mammalian cancer cell lines. The mouse Lewis lung carcinoma cell line, A9, was treated with 21 μM of cannabigerol for 24 hours prior to flow cytometric analysis of cell surface expression of MHC class I expression levels using the MHC class I antibody W6/32 (Thermo Fisher). Control conditions included the vehicle, dimethyl sulfoxide (DMSO, 1%) alone, and 100 ng/ml of trichostatin A (TSA), a histone deacetylase inhibitor and known inducer of MHC class I expression in mammalian cells. […] The positive control, TSA, stimulated expression by 2.4-fold.

[4] = tested on: MHC-I expression, human cancer cell lines; test: MHC-I expression restoration by IFN-γ in human cancer cell lines; format: cell-based; details: 48 hours
Procedure: (§1) FIG. 3A-3B. […] MHC-I downregulation is reversible in the majority of human and mouse cancer cell lines.
(§2) MHC-I expression may be restored in cancers, such as those with intact antigen processing machinery (APM) genes. Various human and mouse cancer cell lines were treated with dose titrations of recombinant human and mouse IFN-γ, respectively. The cells were incubated with IFN-γ for 48 hours in a humidified chamber at 37° C., stained with fluorescent haplotype-appropriate MHC-I antibody, then signal was determined by flow cytometry. Cancers represented in this experiment include brain (SK-N-MC), breast (4T1, EMT6), colorectal (COLO 205, SNU-C1, DLD-1, LS123, LS411N, LoVo, CT26, MC38), kidney (Renca), lung (NCI-H146, LLC), lymphoid (A20), and skin (A431, SK-MEL-2, B16F10). IFN-γ induced MHC-I expression in a dose-dependent manner in 6/10 (60%) human and 6/9 mouse (67%) cell lines. […] The results are found in FIGS. 3A-3B.

[5] = tested on: MHC-I expression, mouse cancer cell lines; test: MHC-I expression restoration by IFN-γ in mouse cancer cell lines; format: cell-based; details: 48 hours
Procedure: as §1, §2

[6] = tested on: MHC-I expression, COLO 205 cells; test: Time course of MHC-I expression in CBD-treated COLO 205 cells; format: cell-based, human; details: COLO 205, 15 μM
Procedure: FIG. 5. MHC-I expression (MFI) is induced over time in CBD-treated COLO 205 cells.
To determine whether changes in gene expression play a role in cannabinoid-induced MHC-I expression, COLO 205 cells were incubated with 15 μM CBD and cells were harvested at 6, 12, 24, and 48 hours for determination of MHC-I expression by flow cytometry.

[7] = COLO 205, 10 μM, W6/32 staining
[8] = COLO 205, 20 μM, W6/32 staining
[9] = COLO 205, 30 μM, W6/32 staining
[10] = COLO 205, 40 μM, W6/32 staining

`CCCCCc1cc(O)c2c(c1)OC(C)(CCC=C(C)C)C=C2` (stereo not shown) [Example 3, 2-methyl-2-(4-methyl-3-penten-1-yl)-7-pentyl-2H-1-benzopyran-5-ol] was tested, and the MFI [1, 7] was 120, the MFI [1, 8] was 148 and the MFI [1, 9] was 177. The MFI [1, 10] was 280, the fold induction at 10 µM [1] was 0.99 and the fold induction at 20 µM [1] was 1.22. For the same compound, the fold induction at 30 µM [1] was 1.46, the fold induction at 40 µM [1] was 2.31 and the pEC50 [2] was 4.70. For the same compound, the “Fold Induction” value [2] was 1.6 Fold.

In the case of `CC(/C=C/C(=O)NO)=C\[C@@H](C)C(=O)c1ccc(N(C)C)cc1` [TSA, trichostatin A, reference compound], the “increase in MHC class I expression” value [3] was 2.4 fold.

Compound `CCCc1cc(O)c2c(c1)OC(C)(C)[C@@H]1CCC(C)=C[C@@H]21` [Example 5, 6aR,7,8,10aR-tetrahydro-6,6,9-trimethyl-3-propyl-6H-dibenzo[b,d]pyran-1-ol] has an MFI [1, 7] of 152, an MFI [1, 8] of 192 and an MFI [1, 9] of 235. The MFI [1, 10] was 242, the fold induction at 10 µM [1] was 1.26 and the fold induction at 20 µM [1] was 1.59. For the same compound, the fold induction at 30 µM [1] was 1.94, the fold induction at 40 µM [1] was 2 and the pEC50 [2] was 4.82. For the same compound, the “Fold Induction” value [2] was 3.0 Fold.

Work on `CCCCCc1cc(O)c2c(c1)OC(C)(C)c1ccc(C)cc1-2` [Example 4, 6,6,9-trimethyl-3-pentyl-6H-dibenzo[b,d]pyran-1-ol] yielded an MFI [1, 7] of 120, an MFI [1, 8] of 160 and an MFI [1, 9] of 253. For the same compound, the MFI [1, 10] was 253, the fold induction at 10 µM [1] was 0.99 and the fold induction at 20 µM [1] was 1.32. The fold induction at 30 µM [1] was 2.09, the fold induction at 40 µM [1] was 2.09 and the pEC50 [2] was 4.60. For the same compound, the “Fold Induction” value [2] was 1.8 Fold.

In the case of “Interferon-γ: a natural cytokine known to stimulate MHC class I expression in many mammalian cells”, the MFI ([1]; COLO 205, 0.004 ng/mL) was 119, the MFI ([1]; COLO 205, 0.012 ng/mL) was 193 and the MFI ([1]; COLO 205, 0.040 ng/mL) was 250. It also gave an MFI ([1]; COLO 205, 0.110 ng/mL) of 321, an MFI ([1]; COLO 205, 1.000 ng/mL) of 483 and an MFI ([1]; COLO 205, 3.000 ng/mL) of 482. The “increase in MHC class I expression (maximum)” value ([1]; COLO 205, interferon-γ reference) was at most 4 fold, the “cell lines with dose-dependent induction of MHC-I expression” value [4] was 6/10 and the “cell lines with dose-dependent induction of MHC-I expression” value [5] was 6/9.

`C=C(C)[C@@H]1CCC(C)=CC1c1c(O)cc(CCCCC)cc1O` (stereo partly drawn) [Example 2, 2-[1R-3-methyl-6R-(1-methylethenyl)-2-cyclohexen-1-yl]-5-pentyl-1,3-benzenediol] gave an MFI [1, 7] of 141, an MFI [1, 8] of 205 and an MFI [1, 9] of 199. The MFI [1, 10] was 82, the fold induction at 10 µM [1] was 1.17 and the fold induction at 20 µM [1] was 1.69. It also gave a fold induction at 30 µM [1] of 1.64, a fold induction at 40 µM [1] of 0.68 and a pEC50 [2] of 5.00. For the same compound, the “Fold Induction” value [2] was 2.8 Fold, the MHC-I expression ([6]; 48 hr) was “robust induction” and the MHC-I expression ([6]; by 24 hours) was “slight increase”.
